In ChEMBL document CHEMBL3272352, “Ergoline congeners as potential inhibitors of prolactin release. 2” (1976):

test system: Rattus norvegicus; assay: Inhibition of prolactin secretion in rat assessed as serum prolactin level at 10 ug, ip after 1 hr by radioimmunoassay relative to control; type: functional

Question: `CC(C)[C@H]1C(=O)N2CCC[C@H]2[C@]2(O)O[C@](NC(=O)[C@@H]3C=C4c5cccc6[nH]cc(c56)C[C@H]4N(C)C3)(C(C)C)C(=O)N12` [ERGOCORNINE] was tested. Which “inhibition (INH)” value did it give?
Answer: 60%

test system: Rattus norvegicus; assay: Inhibition of prolactin secretion in rat assessed as serum prolactin level at 1 mg, ip after 1 hr by radioimmunoassay relative to control

Question: With `CN(C)C1CCc2c(ccc(O)c2O)C1` (stereo not drawn) as the compound, how does the “inhibition (INH)” value read?
Answer: 68%

Question: How did the “inhibition (INH)” value turn out when `CNC1CCc2c(OC)ccc(OC)c2C1` (stereo not drawn) was run?
Answer: 5%

Question: For `COc1ccc(OC)c2c1CCC(N)C2` (stereo not drawn), which “inhibition (INH)” value is on record?
Answer: 3%

Question: Which “inhibition (INH)” value does the source give for `CCN(CC)C(=O)CCN(C)CCc1cc(OC)c(C)cc1OC` here?
Answer: 10%

Question: Which “inhibition (INH)” value does the source give for `CN(CCCC#N)C1CCc2ccccc2C1` (stereo not drawn) here?
Answer: 24%

Question: `COc1ccc(OC)c2c1CCC(N(C)C)C2.Cl` (stereo not drawn) was tested. Which “inhibition (INH)” value did it give?
Answer: -3%

Question: For `Br.COc1ccc(OC)c2c1CCC(N(C)CCCC#N)C2` (stereo not drawn), which “inhibition (INH)” value is on record?
Answer: -4%

Question: `Br.NC1CCc2c(O)ccc(O)c2C1` (stereo not drawn) was tested. Which “inhibition (INH)” value did it give?
Answer: -9%

Question: Which “inhibition (INH)” value does the source give for `Br.CNC1CCc2c(O)ccc(O)c2C1` (stereo not drawn) here?
Answer: -19%

Question: How did the “inhibition (INH)” value turn out when `Br.CN(C)C1CCc2c(O)ccc(O)c2C1` (stereo not drawn) was run?
Answer: 25%

Question: How did the “inhibition (INH)” value turn out when `Br.CN(CCCC#N)CCc1c[nH]c2ccccc12` was run?
Answer: 12%

Question: How did the “inhibition (INH)” value turn out when `CN1CCc2cccc3c2[C@H]1Cc1ccc(O)c(O)c1-3` [APOMORPHINE] was run?
Answer: 29%
